Test results taken from patent US12139481B2, “Compositions comprising macrocycle derivatives incorporating bridged macrocycles and methods of producing and using same” (Southwestern Oklahoma State University, priority 2015, dated 2024).
Several values for one entry are separate records, joined by “and”; a condition that tells them apart may be missing. Equal entries are not always repeated.

What was measured:
[1] = test system: S. mansoni newly transformed schistosomula (NTS); assay: In vitro testing on Schistosoma mansoni newly transformed schistosomula (NTS), viability score; type: cell-based; details: NTS S. mansoni, 33 μM, 72 h
Description: Assays were prepared according to the laboratory SOP for the lab of Dr. Jennifer Keiser (Swiss Tropical and Public Health Institute, Basel). Harvested S. mansoni cercariae (Liberian strain) obtained from infected Biomphalaria glabrata snails were mechanically transformed into newly transformed schistosomula (NTS) following standard procedures. Briefly, snails were placed under light in the morning to stimulate cercarial shedding. The cercarial suspension was collected, cooled for 30 minutes, and then vigorously pipetted (30×) and vortexed (3 minutes). The suspension was then placed in the incubator (37° C. and 5% CO2) for 30 minutes, and the vortexing and pipetting steps were repeated. The transformation was complete at this point, and the tails were separated from the heads by rinsing three times with cold HBSS. NTS were then incubated overnight in culture medium overnight and used the next day.
The original stock compounds (which were not already dissolved) were dissolved in dimethyl sulfoxide (DMSO) to a concentration of 10 mM. 100 NTS were placed in each well of a 96-well plate with culture medium, and the test compound for a final well volume of 250 μl. […] NTS incubated with no more than 1% DMSO served as control. NTS were kept in an incubator at 37° C. and 5% CO2 for up to 72 hours. After 72 hours, the condition of the NTS was microscopically evaluated using a scale from 3 (normal activity and no tegument alteration) to 0 (dead, completely granulated).

[2] = test system: Cryptococcus neoformans ATCC 90113; assay: Antimicrobial microdilution assay against Cryptococcus neoformans (modified CLSI/NCCLS, optical density); type: cell-based; details: for X more potent than Amphotericin B: C. neoformans, ratio of molar IC50 to Amphotericin B; for C. neoformans IC50 / IC50: in vitro, C. neoformans ATCC 90113; for IC50: read-out: C. neoformans IC50 (mol/L)
Method in brief: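 Fungicidal endpoint taken by subculturing 5 μL from each clear well onto agar, MFC being the lowest concentration with no regrowth. Duplicate wells of serially diluted compound (20% DMSO/saline) in RPMI pH 6.0, read at 630 nm pre- and post-incubation, under modified CLSI methods. IC50 means 50% growth inhibition against controls.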

[3] = test system: L. donovani promastigotes; assay: Antileishmanial Alamar Blue assay on promastigotes; type: cell-based, Leishmania donovani; details: for X more potent than Pentamidine: L. donovani, ratio of molar IC50 to Pentamidine; for L. donovani IC50 / IC50: promastigotes, 48 hours, Alamar Blue; for IC50: read-out: L. donavani IC50
Method in brief: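 Alamar Blue fluorescence (544/590 nm) quantified growth after 48 hours at 26° C of compound-treated promastigotes. Parasites were seeded at 5×10^5/mL in RPMI 1640 plus 10% FCS; drug range 50-3.1 μg/mL, and IC50 derived by plotting percent growth against test concentration.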

Compound | Effect at 72 h (%) [1] | X more potent than Amphotericin B [2] | C. neoformans IC50 [2] | IC50 [2] | X more potent than Pentamidine [3] | L. donovani IC50 [3] | IC50 [3]
CN1CCCN2CCN(CCCN(Cc3cc(CN4CCCN5CCN(C)CCCN(CC5)CC4)cc(CN4CCCN5CCN(C)CCCN(CC5)CC4)c3)CC2)CC1 [BNS018, tris-CB-cyclams] | 11.71% | 2.21 | 0.090 µg/mL | 0.108 µM | 0.57 | 7.73 µg/mL | 9.25 µM
CC(=O)[O-].CC(=O)[O-].CC(=O)[O-].CN1CCN2CCN(CC1)CCN(Cc1cc(CN3CCN4CCN(C)CCN(CC4)CC3)cc(CN3CCN4CCN(C)CCN(CC4)CC3)c1)CC2.F[P-](F)(F)(F)(F)F.F[P-](F)(F)(F)(F)F.F[P-](F)(F)(F)(F)F.[Cu+2].[Cu+2].[Cu+2] [BNS21, [Cu3(tris-CB-Cyclens)(OAc)3][PF6]3] | 5.41% | 0.28 | 1.320 µg/mL | 0.85 µM | – | – | –
CC(=O)[O-].CC(=O)[O-].CC(=O)[O-].CN1CCN2CCN(CC1)CCN(Cc1cc(CN3CCN4CCN(C)CCN(CC4)CC3)cc(CN3CCN4CCN(C)CCN(CC4)CC3)c1)CC2.F[P-](F)(F)(F)(F)F.F[P-](F)(F)(F)(F)F.F[P-](F)(F)(F)(F)F.O.O.O.O.O.O.[Zn+2].[Zn+2].[Zn+2] [BNS22, [Zn3(tris-CB-Cyclens)(OAc)3][PF6]3•6H2O] | 11.71% | 0.12 | 3.410 µg/mL | – | – | – | –
CC(=O)[O-].CC(=O)[O-].CC(=O)[O-].CN1CCCN2CCN(CCCN(Cc3cc(CN4CCCN5CCN(C)CCCN(CC5)CC4)cc(CN4CCCN5CCN(C)CCCN(CC5)CC4)c3)CC2)CC1.F[P-](F)(F)(F)(F)F.F[P-](F)(F)(F)(F)F.F[P-](F)(F)(F)(F)F.[Cu+2].[Cu+2].[Cu+2] [BNS025] | 18.02% | – | – | – | – | – | –
CC(=O)[O-].CC(=O)[O-].CN1CCCN2CCN(CCCN(Cc3cccc(CN4CCCN5CCN(C)CCCN(CC5)CC4)c3)CC2)CC1.F[P-](F)(F)(F)(F)F.F[P-](F)(F)(F)(F)F.F[P-](F)(F)(F)(F)F.F[P-](F)(F)(F)(F)F.[Co+3].[Co+3] [CDG010, [Co2(m-CB-Cyclams)(OAc)2][PF6]4] | 11.71% | 0.35 | 0.960 µg/mL | 0.686 µM | – | – | –
c1c(CN2CCCN3CCN(CCCNCC2)CC3)cc(CN2CCCN3CCN(CCCNCC2)CC3)cc1CN1CCCN2CCN(CCCNCC1)CC2 [CDG019] | 0.00% | – | – | – | – | – | –
F[P-](F)(F)(F)(F)F.F[P-](F)(F)(F)(F)F.F[P-](F)(F)(F)(F)F.F[P-](F)(F)(F)(F)F.F[P-](F)(F)(F)(F)F.F[P-](F)(F)(F)(F)F.[Ni+2].[Ni+2].[Ni+2].c1c(CN2CCCN3CCN(CCCNCC2)CC3)cc(CN2CCCN3CCN(CCCNCC2)CC3)cc1CN1CCCN2CCN(CCCNCC1)CC2 [CDG024, [Ni3(tris-SB-Cyclams)][PF6]6] | 5.41% | 0.18 | 2.440 µg/mL | 1.33 µM | – | – | –
c1c(CN2CCNCCN3CCN(CC3)CC2)cc(CN2CCNCCN3CCN(CC3)CC2)cc1CN1CCNCCN2CCN(CC2)CC1 [CDG029] | 24.32% | – | – | – | – | – | –
CN1CCN2CCN(C)CCN(CC1)CC2.F[P-](F)(F)(F)(F)F.[Cl-].[Cl-].[Mn+3] [CNV06, [Mn(Bcyclen)Cl2]PF6] | 0.00% | 0.02 | 6.390 µg/mL and 5.579 µg/mL | 12.8 µM and 11.2 µM | – | – | –
CC(=O)[O-].CC(=O)[O-].CN1CCN2CCN(CC1)CCN(Cc1cccc(CN3CCN4CCN(C)CCN(CC4)CC3)c1)CC2.F[P-](F)(F)(F)(F)F.F[P-](F)(F)(F)(F)F.[Cu+2].[Cu+2] [DJC06A, [Cu2(m-CB-Cyclens)(OAc)2][PF6]2] | 5.41% | 0.04 | 6.710 µg/mL | 6.32 µM | – | – | –
CC(=O)[O-].CC(=O)[O-].CN1CCN2CCN(CC1)CCN(Cc1cccc(CN3CCN4CCN(C)CCN(CC4)CC3)c1)CC2.F[P-](F)(F)(F)(F)F.F[P-](F)(F)(F)(F)F.[Zn+2].[Zn+2] [DJC07, [Zn2(m-CB-Cyclens)(OAc)2][PF6]2] | 0.00% | 0.03 | 7.410 µg/mL | – | – | – | –
Cl.Cl.Cl.Cl.Cl.Cl.Cl.Cl.O.O.O.O.c1cc(CN2CCCN3CCN(CCCNCC2)CC3)cc(CN2CCCN3CCN(CCCNCC2)CC3)c1 [KS226, m-SB-cyclams HCl salt] | 5.41% | 3.13 | 0.070 µg/mL | 0.0762 µM | 0.28 | 17.61 µg/mL | 19.2 µM
CC(=O)[O-].CC(=O)[O-].F[P-](F)(F)(F)(F)F.F[P-](F)(F)(F)(F)F.[Cu+2].[Cu+2].c1cc(CN2CCNCCN3CCN(CC3)CC2)ccc1CN1CCNCCN2CCN(CC2)CC1 [OB28, [Cu2(p-SB-Cyclens)(OAc)2][PF6]2] | 0.00% | 0.05 | 5.210 µg/mL | 5.04 µM | – | – | –
CC(=O)[O-].CC(=O)[O-].F[P-](F)(F)(F)(F)F.F[P-](F)(F)(F)(F)F.O.[Ni+2].[Ni+2].c1cc(CN2CCNCCN3CCN(CC3)CC2)ccc1CN1CCNCCN2CCN(CC2)CC1 [OB29, [Ni2(p-SB-Cyclens)(OAc)2][PF6]2•H2O] | 5.41% | 0.31 | ≤ 0.800 µg/mL | 0.768 µM | – | – | –
CC(=O)[O-].F[P-](F)(F)(F)(F)F.[Zn+2].c1ccc(CN2CCN3CCN(CC2)CCN(Cc2ccccc2)CC3)cc1 [RM42, [Zn(Bn2Bcyclen)(OAc)]PF6] | 30.63% | – | – | – | 0.73 | 4.73 µg/mL | –
CC(=O)[O-].F[P-](F)(F)(F)(F)F.[Ni+2].c1ccc(CN2CCN3CCN(CC2)CCN(Cc2ccccc2)CC3)cc1 [TC10, [Ni(Bn2Bcyclen)(OAc)]PF6] | 30.63% | – | – | – | 0.31 | 10.95 µg/mL | 17.1 µM
CC(=O)[O-].F[P-](F)(F)(F)(F)F.[Co+2].c1ccc(CN2CCCN3CCN(CCCN(Cc4ccccc4)CC3)CC2)cc1 [TC11, [Co(Bn2Bcyclam)(OAc)]PF6] | 24.32% | – | – | – | 0.10 | 35.29 µg/mL | 52.7 µM
CC(=O)[O-].CN1CCCN2CCN(CCCN(Cc3ccccc3)CC2)CC1.F[P-](F)(F)(F)(F)F.[Co+2] [TRH016] | 11.71% | – | – | – | – | – | –
[Cu2(m-SB-Cyclams)(OAc)2][PF6]2 [KS24] | 18.02% | 0.08 | 3.180 µg/mL | 3.08 µM | – | – | –
[Cu3(tris-SB-Cyclens)(OAc)3][PF6]3•0.5NH4PF6 [CDG022] | 11.71% | 0.07 | 5.480 µg/mL | 3.44 µM | – | – | –
[Ni2(m-SB-Cyclams)(OAc)2][PF6]2 [KS25] | 18.02% | 0.02 | 16.030 µg/mL | 15.7 µM | – | – | –
[Ni(Bn1Me1Bcyclam)(OAc)]PF6•0.5NH4PF6 [TRH11B] | 24.32% | – | – | – | 0.09 | 38.64 µg/mL | 59.7 µM
[Zn2(m-SB-Cyclams)(OAc)2][PF6]2 [KS26] | 11.71% | 0.02 | 12.510 µg/mL | 12.1 µM | – | – | –
[Zn3(tris-SB-Cyclens)(OAc)3][PF6]3•0.5NH4PF6 [CDG023] | 18.02% | 0.29 | 1.310 µg/mL | 0.819 µM | – | – | –
m-CB-cyclens HCl salt [DJC05C] | 5.41% | 0.23 | 0.940 µg/mL | 1.06 µM | 0.21 | 22.89 µg/mL | 25.7 µM
